Experiments:
[1] = test system: Mus musculus; experiment: Decrease in total cholesterol level in LDL receptor knockout C57BL/6 mouse plasma at 10 mg/kg administered with Western diet after 8 weeks; type: functional; design: scale not given: the % may be the effect or the level left
[2] = test system: THP-1; experiment: Effect on ABCA1 gene expression in human differentiated THP1 cells relative to TO901317; type: functional
[3] = test system: HepG2; experiment: Effect on triglyceride accumulation in human HepG2 cells; type: functional, cell-based
[4] = test system: Syrian golden hamster; experiment: Induction of FAS gene expression in golden Syrian hamster liver at 3 mg/kg administered with chow diet for 7 days measured after 2 hrs of final dose by real time PCR; type: functional, Mesocricetus auratus
[5] = test system: THP-1; experiment: Stimulation of [3H]cholesterol efflux in human THP1 foam cells loaded with ac-LDL; type: functional, cell-based
[6] = test system: HepG2; experiment: Effect on triglyceride accumulation in human HepG2 cells relative to TO901317; type: functional
[7] = test system: HepG2; experiment: Effect on SREBP1c gene expression in human HepG2 cells; type: functional, cell-based
[8] = test system: Syrian golden hamster; experiment: Effect on triglyceride level in golden Syrian hamster plasma at 3 mg/kg administered with chow diet for 7 days measured after 2 hrs of final dose; type: functional, Mesocricetus auratus
[9] = test system: HepG2; experiment: Effect on SREBP1c gene expression in human HepG2 cells relative to TO901317; type: functional
[10] = test system: Mus musculus; experiment: Reduction in atherosclerotic lesion size in LDL receptor knockout C57BL/6 mouse thoracic aorta at 10 mg/kg administered with Western diet after 8 weeks by oil Red-O staining; type: functional; design: scale not given: the % may be the effect or the level left
[11] = test system: THP-1; experiment: Stimulation of [3H]cholesterol efflux in human THP1 foam cells loaded with ac-LDL relative to TO901317; type: functional
[12] = target: T1, Oxysterols receptor LXR-beta (Homo sapiens, UniProt P55055); experiment: Agonist activity at human recombinant LXRbeta ligand binding domain in human HuH7 cells co-transfected with fused Gal4-DBD by transactivation assay; type: cell-based, Huh-7
T1 sequence (P55055 whole entry): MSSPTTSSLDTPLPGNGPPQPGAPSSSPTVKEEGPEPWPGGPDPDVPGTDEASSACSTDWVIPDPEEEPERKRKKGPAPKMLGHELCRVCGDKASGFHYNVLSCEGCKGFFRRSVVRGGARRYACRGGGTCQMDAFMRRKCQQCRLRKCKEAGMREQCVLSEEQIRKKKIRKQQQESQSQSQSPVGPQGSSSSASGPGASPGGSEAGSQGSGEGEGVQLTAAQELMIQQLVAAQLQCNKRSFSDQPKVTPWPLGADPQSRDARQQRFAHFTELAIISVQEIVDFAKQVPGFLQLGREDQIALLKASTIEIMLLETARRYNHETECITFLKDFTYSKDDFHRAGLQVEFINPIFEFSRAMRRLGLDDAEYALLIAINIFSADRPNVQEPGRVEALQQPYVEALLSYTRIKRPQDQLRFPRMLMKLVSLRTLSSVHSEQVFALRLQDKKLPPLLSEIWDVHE

[13] = target: T2, Oxysterols receptor LXR-alpha (Homo sapiens, UniProt Q13133)
[14] = test system: THP-1; experiment: Effect on ABCA1 gene expression in human differentiated THP1 cells; type: functional, cell-based
[15] = test system: Mus musculus; experiment: Upregulation of ABCA1 gene expression in LDL receptor knockout C57BL/6 mouse duodenum at 10 mg/kg administered with Western diet; type: functional; settings: route oral
[16] = test system: Mus musculus; experiment: Increase in CYP7A1 gene expression in LDL receptor knockout C57BL/6 mouse liver at 10 mg/kg administered with Western diet; type: functional
[17] = Terminal half life in C57 mouse at 10 mg/kg, po; type: ADME, organism-based; design: dose 10 mg/kg, route oral; settings: in vivo, read-out: beta t1/2 (converted)
[18] = AUC (0 to infinity) in C57 mouse at 1 mg/kg, iv and 10 mg/kg, po; type: ADME, organism-based; settings: plasma
[19] = Bioavailability in C57 mouse at 1 mg/kg, iv and 10 mg/kg, po; type: ADME, organism-based; settings: in vivo
[20] = Cmax in male C57 mice after 10 mg/kg oral dose; type: ADME, organism-based; design: dose 10 mg/kg, route oral; settings: C57, mouse, in vivo
[21] = Half life in C57 mouse at 1 mg/kg, iv; type: ADME, organism-based; design: dose 1 mg/kg, route intravenous; settings: in vivo
[22] = Tmax in C57 mouse at 1 mg/kg, iv and 10 mg/kg, po; type: ADME, organism-based; settings: in vivo
[23] = Clearance in C57 mouse at 1 mg/kg, iv and 10 mg/kg, po; type: ADME, organism-based; settings: in vivo
[24] = Volume of distribution at steady state in C57 mouse at 1 mg/kg, iv and 10 mg/kg, po; type: ADME, organism-based; settings: in vivo, read-out: Vdss
[25] = target: T2, Oxysterols receptor LXR-alpha; remark: listed apart in the source
[26] = target: T1, Oxysterols receptor LXR-beta

| SMILES | Activity [1] [%] | Efficacy [2] [%] | EC50 [3] [nM] | EC50 [5] [nM] | Efficacy [6] [%] | EC50 [7] [nM] | Efficacy [9] [%] | Activity [10] [%] | Efficacy [11] [%] | EC50 [12] [nM] | other results |
| --- | --- | --- | --- | --- | --- | --- | --- | --- | --- | --- | --- |
| O=C(O)Cc1ccc(COc2cccc(-c3c(Cc4ccccc4)cnc4c(C(F)(F)F)cccc34)c2)cc1 | 20 | 155 | 223 | 6 | 85 | 120 | 96 | 38 | 88 | – | fold change (FC) [4]: 4; Activity [8]: 25% |
| O=S(=O)(c1ccccc1)N(CC(F)(F)F)c1ccc(C(O)(C(F)(F)F)C(F)(F)F)cc1 [T091317] | – | 100 | – | 3 | 100 | 61 | 100 | – | 100 | – | – |
| O=C(O)Cc1cccc(OCCCN(Cc2cccc(C(F)(F)F)c2Cl)CC(c2ccccc2)c2ccccc2)c1 | 17 | 178 | 2000 | 31 | 45 | 210 | 137 | 40 | 84 | 310 | EC50 [13]: 660 nM; EC50 [14]: 434 nM; fold change (FC) [15]: 6.9; fold change (FC) [16]: 1.9 |
| FC(F)(F)c1cccc2c(-c3ccccc3)n(Cc3ccccc3)nc12 | – | – | – | – | – | – | – | – | – | – | half-life [17]: 2.2 h; AUC(0-inf) [18]: 321 ng·h/mL; bioavailability [19]: 16%; Cmax [20]: 124 ng/mL; half-life [21]: 1.9 h; Tmax [22]: 0.25 h; clearance [23]: 81 mL/min/kg; Vd [24]: 5.2 L/kg |
| O=C(O)Cc1ccc(CNc2cccc(-c3c(Cc4ccccc4)cnc4c(C(F)(F)F)cccc34)c2)cc1 | – | – | – | – | – | – | – | – | – | 90 | IC50 [25]: 8 nM; IC50 [26]: 2 nM |

— ChEMBL document CHEMBL1152299, “Indazole-based liver X receptor (LXR) modulators with maintained atherosclerotic lesion reduction activity but diminished stimulation of hepatic triglyceride synthesis” (J Med Chem, 2008)
